Assay results taken from patent US12077503B2, “Substituted cyclic amides and their use as herbicides” (FMC CORPORATION, priority 2015, dated 2024).

How the values were obtained:
Assay type in all cases: in vivo
[1] = tested on: barnyardgrass (Echinochloa crus-galli); experiment: Test A preemergence; conditions: Echinochloa crus-galli, pre-emergence, 240 h, 0 to 100 scale where 0 is no effect and 100 is complete control, read-out: Barnyardgrass plant response rating; for pest or weed control at 31 g/ha: 31 g ai/ha, Preemergence; for pest or weed control at 125 g/ha: 125 g ai/ha, preemergence, approx. 10 d
Procedure, shortened: (§1)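 Seeded soil received test chemicals as a preemergence directed spray, and seedlings at one to two leaves, 2–10 cm tall, received them postemergence, in a non-phytotoxic, surfactant-containing solvent mixture. Pots were held in a greenhouse for approximately 10 d, then rated for injury from 0, no effect, to 100, complete control.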

[2] = tested on: ryegrass, Italian (Italian ryegrass, Lolium multiflorum); experiment: Test A preemergence; conditions: Lolium multiflorum, pre-emergence, 240 h, 0 to 100 scale where 0 is no effect and 100 is complete control, read-out: Ryegrass, Italian plant response rating; for pest or weed control at 31 g/ha: 31 g ai/ha, Preemergence; for pest or weed control at 125 g/ha: 125 g ai/ha, preemergence, approx. 10 d
Procedure, shortened: as §1

Kochia (Kochia scoparia) [3] = experiment: Test A preemergence; conditions: Bassia scoparia, pre-emergence, 240 h, 0 to 100 scale where 0 is no effect and 100 is complete control, read-out: Kochia plant response rating; for pest or weed control at 31 g/ha: 31 g ai/ha, Preemergence; for pest or weed control at 125 g/ha: 125 g ai/ha, preemergence, approx. 10 d
Procedure, shortened: as §1

[4] = tested on: ragweed (common ragweed, Ambrosia elatior); experiment: Test A preemergence; conditions: Ambrosia artemisiifolia, pre-emergence, 240 h, 0 to 100 scale where 0 is no effect and 100 is complete control, read-out: Ragweed plant response rating; for pest or weed control at 31 g/ha: 31 g ai/ha, Preemergence; for pest or weed control at 125 g/ha: 125 g ai/ha, preemergence, approx. 10 d
Procedure, shortened: as §1

[5] = tested on: pigweed (Amaranthus retroflexus); experiment: Test A preemergence; conditions: Amaranthus retroflexus, pre-emergence, 240 h, 0 to 100 scale where 0 is no effect and 100 is complete control, read-out: Pigweed plant response rating; for pest or weed control at 31 g/ha: 31 g ai/ha, Preemergence; for pest or weed control at 125 g/ha: 125 g ai/ha, preemergence, approx. 10 d
[6] = tested on: giant foxtail (Setaria faberii); experiment: Test A preemergence; conditions: Setaria faberi, pre-emergence, 240 h, 0 to 100 scale where 0 is no effect and 100 is complete control, read-out: Foxtail, Giant plant response rating; for pest or weed control at 31 g/ha: 31 g ai/ha, Preemergence; for pest or weed control at 125 g/ha: 125 g ai/ha, preemergence, approx. 10 d
Procedure, shortened: as §1

[7] = tested on: Galium (catchweed bedstraw, Galium aparine); experiment: Test A postemergence; conditions: Galium, post-emergence, 240 h; for pest or weed control at 125 g/ha: 125 g ai/ha, postemergence, visual injury on 0 to 100 scale (0 no effect, 100 complete control), approx. 10 d, read-out: Galium plant response rating; for pest or weed control at 31 g/ha: Postemergence, 31 g ai/ha, visual injury after approx. 10 d, 0 to 100 scale, 0 no effect, 100 complete control, read-out: Plant response rating, Galium
Procedure, shortened: as §1

[8] = tested on: wheat (Triticum aestivum); experiment: Test A postemergence; conditions: Triticum aestivum, post-emergence, 240 h; for plant injury at 125 g/ha: 125 g ai/ha, postemergence, visual injury on 0 to 100 scale (0 no effect, 100 complete control), approx. 10 d, read-out: Wheat plant response rating; for plant injury at 31 g/ha: Postemergence, 31 g ai/ha, visual injury after approx. 10 d, 0 to 100 scale, 0 no effect, 100 complete control, read-out: Plant response rating, Wheat
Procedure, shortened: as §1

[9] = tested on: barnyardgrass (Echinochloa crus-galli); experiment: Test A postemergence; conditions: Echinochloa crus-galli, post-emergence, 240 h; for pest or weed control at 125 g/ha: 125 g ai/ha, postemergence, visual injury on 0 to 100 scale (0 no effect, 100 complete control), approx. 10 d, read-out: Barnyardgrass plant response rating; for pest or weed control at 31 g/ha: Postemergence, 31 g ai/ha, visual injury after approx. 10 d, 0 to 100 scale, 0 no effect, 100 complete control, read-out: Plant response rating, Barnyardgrass
Procedure, shortened: as §1

[10] = tested on: blackgrass (Alopecurus myosuroides); experiment: Test A postemergence; conditions: Alopecurus myosuroides, post-emergence, 240 h; for pest or weed control at 125 g/ha: 125 g ai/ha, postemergence, visual injury on 0 to 100 scale (0 no effect, 100 complete control), approx. 10 d, read-out: Blackgrass plant response rating; for pest or weed control at 31 g/ha: Postemergence, 31 g ai/ha, visual injury after approx. 10 d, 0 to 100 scale, 0 no effect, 100 complete control, read-out: Plant response rating, Blackgrass
Procedure, shortened: as §1

[11] = tested on: ryegrass, Italian (Italian ryegrass, Lolium multiflorum); experiment: Test A postemergence; conditions: Lolium multiflorum, post-emergence, 240 h; for pest or weed control at 125 g/ha: 125 g ai/ha, postemergence, visual injury on 0 to 100 scale (0 no effect, 100 complete control), approx. 10 d, read-out: Ryegrass, Italian plant response rating; for pest or weed control at 31 g/ha: Postemergence, 31 g ai/ha, visual injury after approx. 10 d, 0 to 100 scale, 0 no effect, 100 complete control, read-out: Plant response rating, Ryegrass, Italian
Procedure, shortened: as §1

corn (Zea mays) = experiment: Test A postemergence; conditions: Zea mays, post-emergence, 240 h; for plant injury at 125 g/ha: 125 g ai/ha, postemergence, visual injury on 0 to 100 scale (0 no effect, 100 complete control), approx. 10 d, read-out: Corn plant response rating; for Corn plant response rating (crop injury, 0 = no effect, 100 = complete kill) at 31 g/ha: Postemergence, 31 g ai/ha, visual injury after approx. 10 d, 0 to 100 scale, 100 complete control
Procedure, shortened: as §1

Kochia (Kochia scoparia) [12] = experiment: Test A postemergence; conditions: Bassia scoparia, post-emergence, 240 h; for pest or weed control at 125 g/ha: 125 g ai/ha, postemergence, visual injury on 0 to 100 scale (0 no effect, 100 complete control), approx. 10 d, read-out: Kochia plant response rating; for pest or weed control at 31 g/ha: Postemergence, 31 g ai/ha, visual injury after approx. 10 d, 0 to 100 scale, 0 no effect, 100 complete control, read-out: Plant response rating, Kochia
Procedure, shortened: as §1

[13] = tested on: ragweed (common ragweed, Ambrosia elatior); experiment: Test A postemergence; conditions: Ambrosia artemisiifolia, post-emergence, 240 h; for pest or weed control at 125 g/ha: 125 g ai/ha, postemergence, visual injury on 0 to 100 scale (0 no effect, 100 complete control), approx. 10 d, read-out: Ragweed plant response rating; for pest or weed control at 31 g/ha: Postemergence, 31 g ai/ha, visual injury after approx. 10 d, 0 to 100 scale, 0 no effect, 100 complete control, read-out: Plant response rating, Ragweed
Procedure, shortened: as §1

[14] = tested on: pigweed (Amaranthus retroflexus); experiment: Test A postemergence; conditions: Amaranthus retroflexus, post-emergence, 240 h; for pest or weed control at 125 g/ha: 125 g ai/ha, postemergence, visual injury on 0 to 100 scale (0 no effect, 100 complete control), approx. 10 d, read-out: Pigweed plant response rating; for pest or weed control at 31 g/ha: Postemergence, 31 g ai/ha, visual injury after approx. 10 d, 0 to 100 scale, 0 no effect, 100 complete control, read-out: Plant response rating, Pigweed
Procedure, shortened: as §1

[15] = tested on: giant foxtail (Setaria faberii); experiment: Test A postemergence; conditions: Setaria faberi, post-emergence, 240 h; for pest or weed control at 125 g/ha: 125 g ai/ha, postemergence, visual injury on 0 to 100 scale (0 no effect, 100 complete control), approx. 10 d, read-out: Foxtail, Giant plant response rating; for pest or weed control at 31 g/ha: Postemergence, 31 g ai/ha, visual injury after approx. 10 d, 0 to 100 scale, 0 no effect, 100 complete control, read-out: Plant response rating, Foxtail, Giant
Procedure, shortened: as §1

[16] = tested on: sedge, umbrella (small-flower umbrella sedge, Cyperus difformis); experiment: Test B flooded paddy test; conditions: Cyperus difformis, 250 g ai/ha, Flood; 0 to 100 scale where 0 is no effect and 100 is complete control; read-out: Sedge, Umbrella plant response rating
Procedure, shortened: (§2)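 Evaluation by eye, against controls, occurred 13–15 d post-treatment in a greenhouse, using a 0 (no effect) to 100 (complete control) scale. Application was into the paddy water, 3 cm deep over the soil, on 2-leaf plants.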

[17] = tested on: ducksalad (Heteranthera limosa); experiment: Test B flooded paddy test; conditions: Heteranthera limosa, 250 g ai/ha, Flood; 0 to 100 scale where 0 is no effect and 100 is complete control; read-out: Ducksalad plant response rating
Procedure, shortened: as §2

rice (Oryra sativa) = experiment: Test B flooded paddy test; conditions: Oryza sativa, 250 g ai/ha, Flood; 0 to 100 scale where 0 is no effect and 100 is complete control; read-out: Rice plant response rating
Procedure, shortened: as §2

[18] = tested on: barnyardgrass (Echinochloa crus-galli); experiment: Test B flooded paddy test; conditions: Echinochloa crus-galli, 250 g ai/ha, Flood; 0 to 100 scale where 0 is no effect and 100 is complete control; read-out: Barnyardgrass plant response rating
Procedure, shortened: as §2

Row | Structure (SMILES) | pest or weed control at 31 g/ha [1] [%] | pest or weed control at 125 g/ha [1] [%] | pest or weed control at 31 g/ha [2] [%] | pest or weed control at 125 g/ha [2] [%] | pest or weed control at 31 g/ha (Kochia (Kochia scoparia) [3]) [%] | pest or weed control at 125 g/ha (Kochia (Kochia scoparia) [3]) [%] | pest or weed control at 31 g/ha [4] [%] | pest or weed control at 125 g/ha [4] [%] | pest or weed control at 31 g/ha [5] [%] | pest or weed control at 125 g/ha [5] [%] | pest or weed control at 31 g/ha [6] [%] | pest or weed control at 125 g/ha [6] [%] | pest or weed control at 125 g/ha [7] [%] | pest or weed control at 31 g/ha [7] [%] | plant injury at 125 g/ha [8] [%] | plant injury at 31 g/ha [8] [%] | pest or weed control at 125 g/ha [9] [%] | pest or weed control at 31 g/ha [9] [%] | pest or weed control at 125 g/ha [10] [%] | pest or weed control at 31 g/ha [10] [%] | other results
1 | O=C1NC[C@H](c2ccc(C(F)(F)F)cn2)[C@H]1C(=O)Nc1ccc(F)c(F)c1F [Compound 1105] | 30 | 60 | 0 | 0 | 0 | 70 | 0 | 20 | 0 | 0 | 20 | 90 | 40 | 30 | 0 | 0 | 30 | 0 | 0 | 0 | pest or weed control at 125 g/ha [11]: 0%; pest or weed control at 31 g/ha [11]: 0%; plant injury at 125 g/ha (corn (Zea mays)): 0%; Corn plant response rating (crop injury, 0 = no effect, 100 = complete kill) at 31 g/ha (corn (Zea mays)): 0%; pest or weed control at 125 g/ha (Kochia (Kochia scoparia) [12]): 20%; pest or weed control at 31 g/ha (Kochia (Kochia scoparia) [12]): 0%; pest or weed control at 125 g/ha [13]: 0%; pest or weed control at 31 g/ha [13]: 0%; pest or weed control at 125 g/ha [14]: 0%; pest or weed control at 31 g/ha [14]: 0%; pest or weed control at 125 g/ha [15]: 50%; pest or weed control at 31 g/ha [15]: 0%; pest or weed control at 250 g/ha [16]: 0%; pest or weed control at 250 g/ha [17]: 100%; pest or weed control at 250 g/ha (rice (Oryra sativa)): 20%; pest or weed control at 250 g/ha [18]: 50%
2 | CN1C[C@H](c2ccc(C(F)(F)F)nc2)[C@@](C)(C(=O)Nc2ccc(F)c(F)c2F)C1=O [Compound 1110] | 90 | 100 | 30 | 50 | 0 | 70 | 0 | 40 | 60 | 90 | 90 | 100 | 50 | 20 | 70 | 30 | 90 | 80 | 60 | 0 | pest or weed control at 125 g/ha [11]: 60%; pest or weed control at 31 g/ha [11]: 40%; plant injury at 125 g/ha (corn (Zea mays)): 80%; Corn plant response rating (crop injury, 0 = no effect, 100 = complete kill) at 31 g/ha (corn (Zea mays)): 30%; pest or weed control at 125 g/ha (Kochia (Kochia scoparia) [12]): 70%; pest or weed control at 31 g/ha (Kochia (Kochia scoparia) [12]): 30%; pest or weed control at 125 g/ha [13]: 30%; pest or weed control at 31 g/ha [13]: 0%; pest or weed control at 125 g/ha [14]: 50%; pest or weed control at 31 g/ha [14]: 20%; pest or weed control at 125 g/ha [15]: 90%; pest or weed control at 31 g/ha [15]: 60%; pest or weed control at 250 g/ha [16]: 0%; pest or weed control at 250 g/ha [17]: 100%; pest or weed control at 250 g/ha (rice (Oryra sativa)): 50%; pest or weed control at 250 g/ha [18]: 90%
